Series [1] deals with oxygen-induced retinopathy (OIR) mouse model. Description: Neovascular tuft formation in oxygen-induced retinopathy (OIR) mouse model. To be noted: neonatal mice, 1.8 mg/kg s.c. at P12 and P14, read at P16, vs vehicle control.
Procedure: Application volume was 10 ml/kg. Control animals received vehicle only.
In this context P means postnatal day. […] Starting from P12, the avascular area begins to revascularize and at the same time neovascular tufts protrude towards the vitreous. At P16 and P17, aberrant pathological neovascularization peaks and revascularization is still incomplete. Mouse eyes were enucleated, fixed in 4% PFA for at least 24 h, and embedded in paraffin. Every 3rd slide from serial sections (6 μm thick) was taken from around the region of the optic nerve. The PAS-stained sections were examined for the presence of neovascular tufts projecting into the vitreous from the inner limiting membrane of the retina. The neovascular score was defined as the mean number of neovascular cell nuclei per section found in ten sections (five on each side of the optic nerve) per eye. Tufts adjacent to the optic nerve (up to 90 μm from each side) were discriminated from counting. Data are represented as mean of 10 slides ±SEM counted tuft cells with one-way ANOVA testing and p<0.05 regarded as significant.
Series [2] has as its target T1, AOC3 (Mus musculus, UniProt O70423).
T1 sequence (O70423 1-765): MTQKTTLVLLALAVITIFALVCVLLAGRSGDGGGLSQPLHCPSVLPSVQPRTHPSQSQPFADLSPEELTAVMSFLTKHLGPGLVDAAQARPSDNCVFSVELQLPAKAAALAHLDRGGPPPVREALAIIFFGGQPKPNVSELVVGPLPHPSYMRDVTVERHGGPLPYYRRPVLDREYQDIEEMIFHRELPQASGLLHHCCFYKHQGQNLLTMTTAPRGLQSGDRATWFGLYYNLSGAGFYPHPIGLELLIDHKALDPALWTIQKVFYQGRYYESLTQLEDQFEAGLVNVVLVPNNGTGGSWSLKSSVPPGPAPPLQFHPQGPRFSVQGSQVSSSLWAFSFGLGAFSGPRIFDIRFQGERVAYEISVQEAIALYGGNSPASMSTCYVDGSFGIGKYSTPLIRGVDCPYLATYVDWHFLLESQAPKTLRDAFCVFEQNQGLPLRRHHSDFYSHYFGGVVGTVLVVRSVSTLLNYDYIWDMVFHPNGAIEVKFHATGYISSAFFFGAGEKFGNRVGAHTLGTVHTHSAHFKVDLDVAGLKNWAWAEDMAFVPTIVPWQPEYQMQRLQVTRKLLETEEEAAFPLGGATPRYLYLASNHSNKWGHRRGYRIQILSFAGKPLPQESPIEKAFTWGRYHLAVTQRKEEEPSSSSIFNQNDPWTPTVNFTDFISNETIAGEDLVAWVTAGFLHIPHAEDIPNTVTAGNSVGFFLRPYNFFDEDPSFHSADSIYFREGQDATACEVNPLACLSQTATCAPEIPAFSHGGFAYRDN
Kind of series: AOC3 activity in sentinel lung tissue homogenates of OIR mice. To be noted: 1.8 mg/kg s.c.

Series [3] deals with STZ-induced diabetic rat model. Description: Retinal function (ERG light sensitivity) in STZ-induced diabetic rat model. In kind it is in vivo. To be noted: STZ diabetic rats, 1.8 mg/kg orally twice daily for 5 weeks; group 3 compared to diabetic vehicle group 2. The protocol: Male Brown Norway rats (BN rats) were obtained from Charles River (Germany). Hyperglycemia was induced by i.p. injections of STZ (65 mg/kg body weight). […] API was used in the form of its hydrochloride. Retinal function was assessed via electroretinography (ERG) recordings. ERG is a non-invasive electrophysiological technique to assess light-induced electrical activity of different retinal neurons, and allows for quantifying different aspects of retinal function such as dim light or color vision. After induction of diabetes via i.p. STZ application (day 1), diabetic (hyperglycemic) animals were randomized into groups of similar blood glucose concentrations (>20 mM at day 5). At week 5 post diabetes induction, ERG recordings were performed to quantify the extent of neuronal dysfunction in the retina. […] The light sensitivity of rod-driven ERG b-wave responses is a measure for the number of neurons participating in the rod-driven retinal pathway (in particular photoreceptors and downstream bipolar cells), and their sensitivity towards light stimuli in order to produce depolarizing light responses. […]

Each structure is given as a SMILES string.

`C[C@@H]1C[C@H]2[C@@H]3CCC4=CC(=O)C=C[C@]4(C)[C@@]3(F)[C@@H](O)C[C@]2(C)[C@@]1(O)C(=O)CO` [Dexamethasone]: the “Reduction of retinal neovascular tuft formation (tuft number)” value in series [1] is listed as 57%. In addition, the “Inhibition of AOC3 activity in sentinel lung tissue homogenates” value in series [2] was “no significant effect”.

`CC(C)(C)NC(=O)c1ccc(OC/C(=C/F)CN)cc1` [API, (E)-4-(2-(aminomethyl)-3-fluoroallyloxy)-N-tert-butylbenzamide]: the “Reduction of retinal neovascular tuft formation (tuft number)” value in series [1] is recorded as 49%. Moreover, the “Increase in normalized light sensitivity of rod-driven ERG b-wave responses” value in series [3] was around 30%.

The values above are taken from patent US10603292B2 (Boehringer Ingelheim International GmbH, priority 2017, dated 2020).
